Experimental data as given in patent publication US20230265105A1, “MACROCYCLIC 7-PYRAZOL-5-YL-INDOLE DERIVATIVES AS INHIBITORS OF MCL-1” (Janssen Pharmaceutica NV, priority 2020, published 2023).

How the values were obtained:
[1] = target: Myeloid Cell Leukemia 1 (Mcl-1) (Homo sapiens, UniProt Q07820); assay: Terbium labeled Mcl-1 HTRF binding assay with Cy5-labeled BIM BH3 peptide; conditions: Ki=IC50/(1+[L]/Kd), [L]=8 nM, Kd=10 nM, 60 min incubation at room temperature, read-out: Tb-MCL1 Ki
Procedure: Terbium labeled Myeloid Cell Leukemia 1 (Mcl-1) homogeneous time-resolved fluorescence (HTRF) binding assay utilizing the BIM BH3 peptide (H2N-(C/Cy5Mal) WIAQELRRIGDEFN-OH) as the binding partner for Mcl-1.
This assay evaluated inhibition of the BH3 domain: Mcl-1 interaction by measuring the displacement of Cy5-labeled BIM BH3 peptide (H2N—(C/Cy5Mal) WIAQELRRIGDEFN-OH) in the HTRF assay format.
The following assay and stock buffers were prepared for use in the assay: (a) Stock buffer: 10 mM Tris-HCl, pH=7.5+150 mM NaCl, filtered, sterilized, and stored at 4° C.; and (b) 1×assay buffer, where the following ingredients were added fresh to stock buffer: 2 mM dithiothreitol (DTT), 0.0025% Tween-20, 0.1 mg/mL bovine serum albumin (BSA). The 1×Tb-Mcl-1+Cy5 Bim peptide solution was prepared by diluting the protein stock solution using the 1×assay buffer (b) to 25 pM Tb-Mcl-1 and 8 nM Cy5 Bim peptide.
Using the Acoustic ECHO, 100 nL of 100×test compound(s) were dispensed into individual wells of a white 384-well Perkin Elmer Proxiplate, for a final compound concentration of 1× and final DMSO concentration of 1%. Inhibitor control and neutral control (NC, 100 nL of 100% DMSO) were stamped into columns 23 and 24 of assay plate, respectively. Into each well of the plate was then dispensed 10 μL of the 1×Tb-Mcl-1+Cy5 Bim peptide solution. The plate was centrifuged with a cover plate at 1000 rpm for 1 minute, then incubated for 60 minutes at room temperature with plates covered.
The TR-FRET signal was read on an BMG PHERAStar FSX MicroPlate Reader at room temperature using the HTRF optic module (HTRF: excitation: 337 nm, light source: laser, emission A: 665 nm, emission B: 620 nm, integration start: 60 μs, integration time: 400 μs).
The BMG PHERAStar FSX MicroPlate Reader was used to measure fluorescence intensity at two emission wavelengths—665 nm and 620 nm—and report relative fluorescence units (RFU) for both emissions, as well as a ratio of the emissions (665 nm/620 nm)*10,000. The RFU values were normalized to percent inhibition as follows:
% inhibition=(((NC−IC)−(compound−IC))/(NC−IC))*100
where IC (inhibitor control, low signal)=mean signal of 1×Tb-MCl-1+Cy5 Bim peptide+inhibitor control or 100% inhibition of Mcl-1; NC (neutral control, high signal)=mean signal 1×Tb-MCl-1+Cy5 Bim peptide with DMSO only or 0% inhibition
An 11-point dose response curve was generated to determine IC50 values (using GenData) based on the following equation:
Y=Bottom+(Top−Bottom)/(1+10^((log IC50−X)*HillSlope))
where Y=% inhibition in the presence of X inhibitor concentration; Top=100% inhibition derived from the IC (mean signal of Mcl-1+inhibitor control); Bottom=0% inhibition derived from the NC (mean signal of Mcl-1+DMSO); Hillslope=Hill coefficient; and IC50=concentration of compound with 50% inhibition in relation to top/neutral control (NC).
In this assay [L]=8 nM and Kd=10 nM
Representative compounds of the present invention were tested according to the procedure as described above, with results as listed in the Table below (n.d. means not determined).

[2] = test system: MOLP-8 human multiple myeloma cell line; assay: MOLP8 Caspase-Glo 3/7 apoptosis induction assay; type: cell-based; conditions: MOLP-8 cells, 2 hours at 37° C.; 30 μM highest conc.; averaged over all runs on all batches
Excerpt: MCL-1 is a regulator of apoptosis and is highly over-expressed in tumor cells that escape cell death. The assay evaluates the cellular potency of small-molecule compounds targeting regulators of the apoptosis pathway, primarily MCL-1, Bfl-1, Bcl-2, and other proteins of the Bcl-2 family. Protein-protein inhibitors disrupting the interaction of anti-apoptotic regulators with BH3-domain proteins initiate apoptosis.
The Caspase-Glo® 3/7 Assay is a luminescent assay that measures caspase-3 and -7 activities in purified enzyme preparations or cultures of adherent or suspension cells. The assay provides a proluminescent caspase-3/7 substrate, which contains the tetrapeptide sequence DEVD. This substrate is cleaved to release aminoluciferin, a substrate of luciferase used in the production of light. Addition of the single Caspase-Glo® 3/7 Reagent in an “add-mix-measure” format results in cell lysis, followed by caspase cleavage of the substrate and generation of a “glow-type” luminescent signal.
This assay uses the MOLP-8 human multiple myeloma cell line, which is sensitive to MCL-1 inhibition.
Cell cultures were maintained between 0.2 and 2.0×10^6 cells/mL. The cells were harvested by collection in 50 mL conical tubes. The cells were then pelleted at 500 g for 5 mins before removing supernatant and resuspension in fresh pre-warmed culture medium. The cells were counted and diluted as needed.
The assay reagent was prepared by transferring the buffer solution to the substrate vial and mixing. The solution may be stored for up to 1 week at 4° C. with negligible loss of signal.
Compounds were delivered in assay-ready plates (Proxiplate) and stored at −20° C.
Assays always include 1 reference compound plate containing reference compounds. The plates were spotted with 40 nL of compounds (0.5% DMSO final in cells; serial dilution; 30 μM highest conc. 1/3 dilution, 10 doses, duplicates). The compounds were used at room temperature and 4 μL of pre-warmed media was added to all wells except column 2 and 23. The negative control was prepared by adding 1% DMSO in media. The positive control was prepared by adding the appropriate positive control compound in final concentration of 60 μM in media. The plate was prepared by adding 4 μL negative control to column 23, 4 μL positive control to column 2 and 4 μL cell suspension to all wells in the plate. The plate with cells was then incubated at 37° C. for 2 hours. The assay signal reagent is the Caspase-Glo solution described above, and 8 μL was added to all wells. The plates were then sealed and measured after 30 minutes.
The activity of a test compound was calculated as percent change in apoptosis induction as follows:
[formula] [formula] % Effect (AC50)=100−((sample−LC)/(HC−LC))*100
% Control=(sample/HC)*100
% Control min=(sample−LC)/(HC−LC)*100

Chain of Myeloid Cell Leukemia 1 (Mcl-1) (Q07820 whole entry): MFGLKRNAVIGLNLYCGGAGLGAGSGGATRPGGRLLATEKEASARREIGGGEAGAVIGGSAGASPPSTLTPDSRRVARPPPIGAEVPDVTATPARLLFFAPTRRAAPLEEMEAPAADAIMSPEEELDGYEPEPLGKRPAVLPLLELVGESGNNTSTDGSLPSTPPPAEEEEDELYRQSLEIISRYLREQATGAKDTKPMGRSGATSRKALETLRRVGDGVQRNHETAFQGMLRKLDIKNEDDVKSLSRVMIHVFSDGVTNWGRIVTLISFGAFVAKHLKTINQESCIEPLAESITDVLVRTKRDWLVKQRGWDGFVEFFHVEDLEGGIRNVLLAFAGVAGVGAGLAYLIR

| SMILES | Ki [1] [nM] | AC50 [2] [nM] |
| --- | --- | --- |
| Cc1nn(C)c2c1CSCc1cc(n(C)n1)CCc1cc(c3ccc(F)cc3c1)OCCCc1c(C(=O)O)n(C)c3c-2c(Cl)ccc13 (single isomer, unassigned) [Compound 9] | 18.7 | 8960 |
| Cc1nn(C)c2c1CSCc1cc(n(C)n1)CCc1cc(c3ccccc3c1)OCCCc1c(C(=O)O)n(C)c3c-2c(Cl)ccc13 (single isomer, unassigned) [Compound 12a] | 0.031 | 29 |
| Cc1nn(C)c2c1CSCc1cc(n(C)n1)CCc1cc(c3ccccc3c1)OCCCc1c(C(=O)O)n(C)c3c-2c(Cl)ccc13 (single isomer, unassigned) [Compound 11a] | 3.68 | 2380 |
| Cc1nn(C)c2c1CSCc1cc(n(C)n1)CCc1cc(c3ccccc3c1)OCCCc1c(C(=O)O)n(C)c3c-2c(Cl)ccc13 (single isomer, unassigned) [Compound 11] | 3.02 | 1620 |
